# Patent US20220213030A1, “AMINOGUANIDINE HYDRAZONES AS RETROMER STABILIZERS USEFUL FOR TREATING NEUROLOGICAL DISEASES” (OSPEDALE SAN RAFFAELE SRL, priority 2019, published 2022)
# Key:
# [1] = system: Neuro2a cells transfected with G93A plasmids; test: LDH-Glo cytotoxicity assay in G93A-transfected Neuro2a; type: cell-based, mouse; settings: 10 μM
# Protocol: We next assayed cytotoxicity by measuring lactate dehydrogenase (LDH) release with a LDH-Glo™ cytotoxicity assay. Cells were treated with plasmids encoding G93A and the Sh56-RNAi sequence with or without compound 2a, while supernatants were used to measure LDH contents. Overexpression of G93A increased the release of LDH by Neuro2a cells, when compared with cells transfected with LacZ-encoding plasmids or with LacZ+Sh56 plasmids (FIG. 3E). […] On the other hand, LDH release increased when cells received G93A plasmids along with Sh56 plasmids.
# LDH cytotoxicity was run on 96 well plates using LDH-Glo™ Cytotoxicity Assay (Promega). Briefly, Neuro2a cells were transfected with plasmids encoding pCMV-LacZ; pcDNA3.1(+)SOD1G93A with or without VPS35 short interfering plasmids (Sh56) or compound 2a (10 μM). After 48 hours, 5 μl of supernatants were 100 fold diluted in LDH storage buffer (Tris-HCl 200 mM, 10% Glycerol, 1% BSA, Sigma-Aldrich) and used to determine LDH, according to manufacturer's recommendations. Maximum LDH Release Control was obtained lysing untreated Neuro2a cells with 2 μL of 10% Triton X-100 (Sigma-Aldrich). In each experiment we calculated % Cytotoxicity=(Exp.LDH Release-Medium Background)/(Max LDH Release Control-Medium Background), and we run parallel positive controls treating cells with 200 μM H2O2.
# G93A mice = test: Motor neuron counts in ventral horn of lumbar spinal cord of G93A mice; type: in vivo, mouse; settings: 10 mg/kg daily, day 100
# Protocol: Mice were sacrificed at day 100, and lumbar SCs assayed for studying MNs cell morphology and numbers. We initially scored NeuN^+ neurons in the ventral horn of the SC to monitor bona fide motor neurons.
# Sections from mice (frozen cryo sections) or glass covers containing cells were washed three times in PBS 1× (Lonza, 5 min each), and incubated in the following blocking mix: PBS 1×/FBS 10% (Invitrogen), BSA 1 mg/mL (Sigma), TritonX100 0.1% (Sigma), for 1 h at room temperature. Antibodies were diluted in blocking mix and incubated at +4° C. overnight according manufacturer's instructions. The following day, sections were rinsed in PBS and fluorescent secondary antibodies—i.e. never deriving from the species from which the primary antibodies are derived—(Alexafluor conjugated) diluted in blocking mix, were used according to the manufacturer's instructions. Slides were incubated in Hoechst 33342 (Sigma) for nuclei counterstaining. When necessary, we performed antigens retrieval by boiling samples in 10 mM sodium citrate (pH 6) for 5 min. […]
# Mice were maintained under pathogen-free conditions at San Raffaele Hospital mouse facility (Milan, Italy). […] Animal cohort numbers were determined by power analysis based on preliminary results.
# VPS26b = VPS26b western blot in spinal cord extracts of G93A mice; type: in vivo, mouse; settings: 10 mg/kg, day 100
# Protocol: Lumbar spinal cords were dissected from saline perfused mice and rapidly homogenized in the following lysis buffer: Tris-HCl 10 mM pH 8, EDTA pH 8 1 mM, NaCl 100 mM, NP40 1% and protease inhibitor cocktail (Sigma). Protein extracts were obtained using a tight-fitting glass Potter tissue grinder (1 ml; Wheaton) and then sonicated at a frequency of 20 kHz (10 times-1s). Protein lysates from cells cultures were obtained from plates receiving PBS1× washing and subsequently the lysis buffer followed by sonication. Protein concentrations were measured by BCA protein assay kit (Thermofisher) according to the manufacturer's recommendations. Ten μg of protein extract was loaded on 10% Mini-PROTEAN TGX Stain-Free precast gels for PAGE (Bio-Rad). Gel electrophoresis was performed at 100 V for 2 hours. Gels were transferred on Immobilon®-P PVDF membrane according to the manufacturer's instructions (Millipore). Blots were blocked in 5% BSA in Tris buffered saline plus 0.1% Tween-20 (TBS-T) for 1 hour before receiving primary antibodies: goat α-VPS35 1:800 (ab10099, Abcam); rabbit α-VPS26b 1:1000 (15915-1-AP, ProteinTech); rabbit α-VPS29 1:1000 (ab236796 Abcam); mouse α-βActin 1:25000 (Sigma); mouse α-Golgin97 1:1000 (Invitrogen); mouse α-Ubiquitin 1:500 (Merk) overnight at 4° C. on shaker. […] Quantifications were done using the Image Lab 6.0.1 software (Bio-Rad).
structure (smiles),measurement,setting,value
"N=C(N)NN=Cc1cccc(C=NNC(=N)N)c1 [Compound 2a, 1,3-Bis-amino guanidine phenyl hydrazone]",LDH release,[1]; cells transfected with G93A plasmids and Sh56 plasmids,high release of LDH was observed
same,LDH release,"[1]; cells transfected with G93A plasmids, 48 hours",significantly reduced LDH release
same,numbers of NeuN+ motor neurons in the ventral horn,G93A mice,significantly higher numbers of motor neurons than vehicle-treated G93A mice
same,VPS26b levels in SC extracts (WB),VPS26b,increase VPS35 and VPS26b levels
